# Results as given in patent US20210378591A1, “PROCESS FOR VISUAL DETERMINATION OF TISSUE BIOLOGY” (UNIVERSITY COLLEGE DUBLIN, NATIONAL UNIVERSITY OF IRELAND, …, priority 2018, published 2021).
# What was measured:
# [1] = Dynamic visual analysis (DVA) of ICG NIR fluorescence intensity, rectal lesion versus healthy background tissue; details: for initial uptake of ICG relative to background tissue: 0.25 mg per kg intravenously, initial phase; for washout of contrast agent: at 25 to 30 minutes
# [2] = cited from earlier work
# [3] = cited from earlier work; remark: listed apart in the source
smiles,measurement,setting,value
"CC1(C)C(/C=C/C=C/C=C/C=C2\N(CCCCS(=O)(=O)O)c3ccc4ccccc4c3C2(C)C)=[N+](CCCCS(=O)(=O)[O-])c2ccc3ccccc3c21 [ICG, indocyanine green]",initial uptake of ICG relative to background tissue,[1]; benign lesions,either synchronous with the background tissue or was ahead of the background tissue
same,washout of contrast agent,[1]; benign lesions,most of the ICG tends to washout
same,initial uptake of ICG relative to background tissue,[1]; cancerous tissue,a definite lag in the initial uptake
same,washout of contrast agent,[1]; cancerous tissue,retains it for longer
same,water solubility,[2],water-soluble but relatively hydrophobic
same,plasma protein binding,[3]; following intravenous injection,rapidly bound to plasma proteins with minimal leakage into the interstitium
same,time of excretion by the liver in bile after injection,[3]; intravenous injection,about 8 min
